Assay results: patent US11096923B2, “Pharmaceutical composition containing polymyxin B/trimethoprim based therapeutics” (University of Rochester, priority 2016, dated 2021)
Like-named read-outs stand apart in the source and are kept apart here.

Experiments:
[1] = tested on: P. aeruginosa strain PA01 biofilms; experiment: Biofilm susceptibility; assay type: cell-based, Pseudomonas aeruginosa; details: established PA01 biofilm, 24 hrs treatment, 32×MIC
Text: Bacterial strains used in these studies include the conventional laboratory strains Pseudomonas aeruginosa PA01 and Staphylococcus aureus UAMS-1, both of which are antibiotic susceptible and capable of forming robust biofilms. See […], Thomas J R, Nelson […]. Role of the accessory gene regulator (agr) in pathogenesis of staphylococcal osteomyelitis. Infection and immunity 1995; 63:3373-3380. Seven clinical keratitis isolates of Pseudomonas aeruginosa, were collected from the Flaum Eye Institute, Rochester N.Y. and 25 clinical isolates of Staphylococcus aureus from geographically distinct regions of the country where purchased from International Health Management Associates (IHMA; Schaumburg, Ill.). […] After 24 hrs the remaining media and non-adherent cells were removed, biofilms were suspended in 0.8% NaCl and plated to quantify surviving bacteria. […] Biofilms were treated in increasing increments ranging from 0 to 64×MIC.

[2] = tested on: S. aureus strain UAMS-1; assay type: cell-based, Staphylococcus aureus; details: 1×MIC, laser microbial growth monitor over 40 hours
Method: Spontaneous resistance to the indicated test agent(s) was measured for P. aeruginosa strain PA01 and S. aureus strain UAMS-1 using two liquid culture approaches. […] Growth was measured using the BacterioScan s216Dx laser microbial growth monitor, with optical measurements taken every 3 minutes over 40 hours. Following 40 hours, samples were plated for to measure viable colony forming units and re-tested for drug susceptibility.
To determine if these colonies represented untreated cells vs. resistant cells, 8 individual colonies from each treatment condition were randomly selected and tested for MICs.
Using an automated laser microbial growth monitor, the optical profiles of these cultures were measured continuously over time. […] Again 8 colonies were selected at random from each treatment group.

[3] = tested on: P. aeruginosa biofilm; design: key: Killing (+) of established biofilms; details: established biofilms; adenylate kinase reporter; Blanchard et al., 2016; cited from earlier work
[4] = tested on: planktonic S. aureus cells; experiment: Antimicrobial kill curves; assay type: cell-based, Staphylococcus aureus; details: 2× MIC
Method: Overnight cultures of the indicated organism were used to inoculate (1:100 dilution) 100 ml of fresh media and grown to mid-exponential phase. […] Aliquots were taken at 1, 2, 3, 4, and 24 hours, serial diluted and plated for colony forming units.

[5] = tested on: P. aeruginosa; experiment: MIC of clinical P. aeruginosa ocular isolates (antibiotic susceptibility profiles); assay type: cell-based, Pseudomonas aeruginosa; details: Pseudomonas aeruginosa, read-out: Minimum Inhibitory Concentration
Text: A series of genotyping and biological assays were used as a preliminary means to evaluate the clonality of clinical P. aeruginosa isolates collected, as follows. Genomic DNA was purified from each isolate using Qiagen DNeasy kits (Hilden, Germany) and used as a template for polymerase chain reactions to detect the presence of the virulence factors exoS, exoY, exoU, exoT, and perV using previously published primers (Table 1). See Allewelt M, Coleman F T, Grout M, Priebe G P, Pier G B. Acquisition of expression of the Pseudomonas aeruginosa ExoU cytotoxin leads to increased bacterial virulence in a murine model of acute pneumonia and systemic spread. Infection and immunity 2000; 68:3998-4004, Lomholt J A, Poulsen K, Kilian M. Epidemic population structure of Pseudomonas aeruginosa: evidence for a clone that is pathogenic to the eye and that has a distinct combination of virulence factors. Infection and immunity 2001; 69, and Ledbetter E C, Mun J J, Kowbel D, Fleiszig S M. Pathogenic phenotype and genotype of Pseudomonas aeruginosa isolates from spontaneous canine ocular infections. Investigative ophthalmology & visual science 2009; 50. […] See Institute C. Performance Standards for Antimicrobial Susceptibility Testing: Twenty-fifth Informational Supplement. Each isolate's ability to form biofilms was quantified. To do so, wells of a polystyrene plate containing 72-hour established biofilms were washed with 0.8% NaCl to remove non adherent cells and stained with crystal violet. To quantify biofilm staining, plates were washed 3 times with H2O, stain was suspended in 30% glacial acetic acid and the optical density (OD600nm) of each well was determined using an automated plate reader, as previously described. See Jacobs A C, Blanchard C E, Catherman S C, Dunman P M, Murata Y. An ribonuclease T2 family protein modulates Acinetobacter baumannii abiotic surface colonization. PloS one 2014; 9.

| SMILES | reduction in biofilm-associated CFU [1] [log] | start of outgrowth of treated culture [2] [h] | P. aeruginosa biofilm AK Signal [3] | reduction in CFU at 24 hours [4] [log] | MIC ([5]; P. aeruginosa ocular isolate RW01 (cornea)) [µg/mL] | MIC ([5]; P. aeruginosa ocular isolate RW02 (cornea)) [µg/mL] | MIC ([5]; P. aeruginosa ocular isolate RW03 (cornea)) [µg/mL] | MIC ([5]; P. aeruginosa ocular isolate RW04 (conjunctiva)) [µg/mL] | MIC ([5]; P. aeruginosa ocular isolate RW05 (cornea)) [µg/mL] | MIC ([5]; P. aeruginosa ocular isolate RW06 (cornea)) [µg/mL] | MIC ([5]; P. aeruginosa ocular isolate RW07 (cornea)) [µg/mL] |
| --- | --- | --- | --- | --- | --- | --- | --- | --- | --- | --- | --- |
| CO[C@H]1/C=C/O[C@@]2(C)Oc3c(C)c(O)c4c(O)c(c(/C=N/N5CCN(C)CC5)c(O)c4c3C2=O)NC(=O)/C(C)=C\C=C\[C@H](C)[C@H](O)[C@@H](C)[C@@H](O)[C@@H](C)[C@H](OC(C)=O)[C@@H]1C [Rifampicin, rifampicin] | 5 | 8 | – | – | – | – | – | – | – | – | – |
| NC[C@H]1O[C@H](O[C@H]2[C@H](O)[C@@H](O[C@H]3O[C@H](CO)[C@@H](O)[C@H](N)[C@H]3O)[C@H](N)C[C@@H]2N)[C@H](N)C[C@@H]1O [Tobramycin, tobramycin] | 5 | – | + | 6 | 0.24 | 0.24 | 0.24 | 0.48 | 0.48 | 0.24 | 0.24 |
